IC50 data for 6 molecules are collected here from BindingDB's records for doi:10.1016/j.bmcl.2016.06.045 (China Pharmaceutical University, 2016).

The nature of the experiment: Inhibition of PARP1 in human A549 cells assessed as potentiation of TMZ-mediated cytotoxicity by measuring TMZ IC50 for growth inhibition at 0.5 uM by SRB assay (Rvb TMZ IC50 = 295 uM). Background: Sulforhodamine B stains cellular protein and so reports cell mass.
For the molecule `CCCN1CCC(c2nc3c(C(N)=O)c(F)ccc3[nH]2)CC1`, the IC50 (commonly the concentration that inhibits the measured activity by half) was found to be 152 µM.
With `NC(=O)c1c(F)ccc2[nH]c(-c3ccc(N4CCOCC4)cc3)nc12` the figure was 130 µM; with `CN1CCC[C@@]1(C)c1nc2c(C(N)=O)c(F)ccc2[nH]1`, 310 µM; with `C[C@]1(c2nc3c(C(N)=O)c(F)ccc3[nH]2)CCCN1`, 338 µM.
For `NC(=O)c1c(F)ccc2[nH]c(C3CCNCC3)nc12`, the IC50 was found to be 354 µM.
`NC(=O)c1c(F)ccc2[nH]c(-c3ccc(N4CCNCC4)cc3)nc12`: the IC50 is 188 µM.
